# Measurements published in patent US12559454B2, “Benzenesulfonamide derivatives and uses thereof” (2692372 Ontario, Inc., priority 2019, dated 2026).
# Experiments:
# MV4-11 cells = assay: CellTiter-Blue cell viability, MV-4-11; assay type: cell-based; details: Homo sapiens, 72 hrs exposure
# Procedure: Anti-cancer efficacy of exemplary compounds of this application was assessed in vitro in different cancer cell lines. Cell viability was examined following treatment at various concentration of inhibitor (0.097656-50 μM) using a cell Titer-Blue cell viability assay. 1×10^4 cells (NHF, MV4-11, K562 and MOLM-13 cells)/well were plated in 96-well assay plates in culture medium. All cells were grown in DMEM, IMDM and RPMI-1640 supplemented with 10% FBS. After 24 hrs, test compounds and vehicle controls were added to appropriate wells so the final volume was 100 μl in each well. The cells were cultured for the desired test exposure period (72 hrs) at 37° C. and 5% CO2. The assay plates were removed from 37° C. incubator and 20 μl/well of CellTiter-Blue® Reagent was added. The plates were incubated using standard cell culture conditions for 1-4 hours and the plates were shaken for 10 seconds and record fluorescence at 560/590 nm.
# tubulin = assay: Tubulin polymerization assay; assay type: biochemical; details: for % Inhibition: Vmax normalized to tubulin only control; for % D.O.P.: degree of polymerization relative to tubulin control
# Procedure: A96-well half-area clear flat-bottom microplate (Corning® #3697) was pre-heated in a plate reader (Cytation 3, BioTek) at 37° C. for 15 minutes prior to the start of each assay. Tubulin polymerization buffer (80 mM PIPES pH 6.9, 2 mM MgCl2, 0.5 mM EGTA, 15% glycerol, 1 mM GTP) was prepared from stock solutions and placed on ice. Inhibitors were prepared to M concentrations in buffer (80 mM PIPES pH 6.9, 2 mM MgCl2, 0.5 mM EGTA, 5% DMSO) from DMSO stock solutions. After the assay plate was pre-warmed, 10 μL of inhibitor or buffer control was added to selected wells. Every assay contained a tubulin only negative control for normalization of data, and a batabulin positive control. The assay plate was incubated at 37° C. for 3 minutes. During this time, a frozen aliquot of tubulin (10 mg/mL) in buffer (80 mM PIPES pH 6.9, 2 mM MgCl2, 0.5 mM EGTA) was defrosted by placing in a room temperature water bath. Once thawed, 200 μL of tubulin was mixed with 420 μL ice cold tubulin polymerization buffer (3 mg/mL tubulin in 80 mM PIPES, pH 6.9, 2 mM MgCl2, 0.5 mM EGTA, 1 mM GTP, 10.2% glycerol). To a 96-well plate on ice, aliquots of 100 μL tubulin was added to each well. From this plate, 90 μL of tubulin was immediately pipetted into all sample wells of the warmed assay plate using a multi-channel pipette. The assay plate was immediately put in the reader at 37° C. and shook for 5 s with orbital shaking at medium speed. The reader recorded the absorbance at 340 nm every 15 s for 30 min.
# The resulting absorbance curves were normalized by subtracting each data point by the absorbance at time 0.
# The largest change in absorbance over the assay time course was also recorded and related to the tubulin control as the % degree of polymerization (% D.O.P.).
SMILES,IC50 (MV4-11 cells) [µM],% Inhibition (tubulin),% D.O.P. (tubulin)
"COc1c(F)c(F)c(F)c(F)c1S(=O)(=O)N(C)C [Compound I-4, 2,3,4,5-tetrafluoro-6-methoxy-N,N-dimethylbenzenesulfonamide]",1 to 10,–,–
"COc1ccc(NS(=O)(=O)c2c(F)c(F)c(F)c(F)c2OC2CCC2)cc1F [Compound I-69, 2-cyclobutoxy-3,4,5,6-tetrafluoro-N-(3-fluoro-4-methoxyphenyl)benzenesulfonamide]",0.1 to 1,A (<10%),A (>85%)
"COc1ccc(NS(=O)(=O)c2c(F)c(F)c(F)c(F)c2OC2CCCC2)cc1F [Compound I-70, 2-(cyclopentyloxy)-3,4,5,6-tetrafluoro-N-(3-fluoro-4-methoxyphenyl)benzenesulfonamide]",> 10,A (<10%),A (>85%)
"COc1ccc(NS(=O)(=O)c2c(F)c(F)c(F)c(F)c2Oc2ccc(F)cc2)cc1F [Compound I-80, 2,3,4,5-tetrafluoro-N-(3-fluoro-4-methoxyphenyl)-6-(4-fluorophenoxy)benzenesulfonamide]",0.1 to 1,–,–
"COc1ccc(CN(Cc2ccc(OC)cc2)S(=O)(=O)c2c(O)c(F)c(F)c(F)c2F)cc1 [Compound I-82, 2,3,4,5-tetrafluoro-6-hydroxy-N,N-bis(4-methoxybenzyl)benzenesulfonamide]",–,B (10-20%),A (>85%)
"CNc1c(F)c(F)c(F)c(F)c1S(=O)(=O)Nc1ccc(OC)c(F)c1 [Compound I-86, 2,3,4,5-tetrafluoro-N-(3-fluoro-4-methoxyphenyl)-6-(methylamino)benzenesulfonamide]",0.1 to 1,A (<10%),A (>85%)
"COc1ccc(CNc2c(F)c(F)c(F)c(F)c2S(=O)(=O)Nc2ccc(OC)c(F)c2)cc1 [Compound I-87, 2,3,4,5-tetrafluoro-N-(3-fluoro-4-methoxyphenyl)-6-((4-methoxybenzyl)amino)benzenesulfonamide]",–,A (<10%),A (>85%)
"COc1ccc(NS(=O)(=O)c2c(N)c(F)c(F)c(F)c2F)cc1F [Compound I-88, 2-amino-3,4,5,6-tetrafluoro-N-(3-fluoro-4-methoxyphenyl)benzenesulfonamide]",–,A (<10%),A (>85%)
"O=S(=O)(Nc1ccccc1)c1c(F)c(F)c(F)c(F)c1OC1CC1 [Compound I-95, 2-cyclopropoxy-3,4,5,6-tetrafluoro-N-phenylbenzenesulfonamide]",1 to 10,–,–
"O=S(=O)(Nc1ccc(F)cc1F)c1c(F)c(F)c(F)c(F)c1OC1CC1 [Compound I-97, 2-cyclopropoxy-N-(2,4-difluorophenyl)-3,4,5,6-tetrafluorobenzenesulfonamide]",> 10,–,–
"O=S(=O)(Nc1cc(F)c(F)cc1F)c1c(F)c(F)c(F)c(F)c1OC1CC1 [Compound I-98, 2-cyclopropoxy-3,4,5,6-tetrafluoro-N-(2,4,5-trifluorophenyl)benzenesulfonamide]",> 10,–,–
"N#Cc1ccc(NS(=O)(=O)c2c(F)c(F)c(F)c(F)c2OC2CC2)cc1 [Compound I-101, N-(4-cyanophenyl)-2-cyclopropoxy-3,4,5,6-tetrafluorobenzenesulfonamide]",> 10,–,–
"O=S(=O)(Nc1ccc(Oc2ccccc2)cc1)c1c(F)c(F)c(F)c(F)c1OC1CC1 [Compound I-103, 2-cyclopropoxy-3,4,5,6-tetrafluoro-N-(4-phenoxyphenyl)benzenesulfonamide]",> 10,–,–
"O=S(=O)(Nc1cccc2ccccc12)c1c(F)c(F)c(F)c(F)c1OC1CC1 [Compound I-104, 2-cyclopropoxy-3,4,5,6-tetrafluoro-N-(naphthalen-1-yl)benzenesulfonamide]",> 10,–,–
